Values of other authors as cited in patent publication US12336975B2, “Composition and methods for treatment or prophylaxis of coronavirus and cancers” ([…], priority 2020, dated 2025).

Tested on: COVID-19
Conditions: preventive and treatment approach for COVID-19

Q: Which results are given for `CCN(CCO)CCCC(C)Nc1ccnc2cc(Cl)ccc12` (centres unmarked) [hydroxychloroquine]?
A: efficacy against COVID-19: no effective results; reported side effect rate: 40.1%
